Test results reported in publication PMC4859512, “Polyamino-Isoprenic Derivatives Block Intrinsic Resistance of P. aeruginosa to Doxycycline and Chloramphenicol In Vitro” (PLoS ONE, 2016).
“And” between values parts separate entries of the source, which are not always exact repeats. Equal entries are not always repeated.

Legend:
P. aeruginosa PA01 (wt) = experiment: Antibiotic susceptibility testing (broth micro-dilution MIC), strain PA01; assay type: cell-based, Pseudomonas aeruginosa; conditions: Pseudomonas aeruginosa, read-out: Minimal Inhibitory Concentration
Experimental: (§1) Experiments were performed on the BAC-SCREEN platform of the UMR-MD1, with a Freedom EVO 150 liquid handling system (Tecan, Lyon, France).
(§2) The same experiment was performed using chloramphenicol (4 mg/L) in combination with 3 (10 μM final concentration). […] These experiments were performed to study the effect of our compounds on the natural resistance of P. aeruginosa. […] Experiments were performed with the ß-lactams ceftazidime and ticarcillin and ciprofloxacin and amikacin.

[1] = tested on: P. aeruginosa PT629 (Mex AB overproducer); experiment: Antibiotic susceptibility testing (broth micro-dilution MIC), strain PT629; assay type: cell-based, Pseudomonas aeruginosa; conditions: Pseudomonas aeruginosa, read-out: Minimal Inhibitory Concentration
Experimental: as §1
(§3) We concluded that compound 3 was the best compound and suitable for a more detailed study. The same experiment was performed using chloramphenicol (4 mg/L) in combination with 3 (10 μM final concentration). Amongst the 20 clinical isolates, the growth of 15 (75%) was impaired, while 5 (25%) were resistant (data not shown). These experiments were performed to study the effect of our compounds on the natural resistance of P. aeruginosa. In addition, we were wondering if compound 3 could also increase susceptibility to other antibiotic families including ß-Lactams, fluoroquinolones and aminoglycosides, that are representative of the main classes of anti-pseudomonal agents. Experiments were performed with the ß-lactams ceftazidime and ticarcillin and ciprofloxacin and amikacin. […] . […] To better characterize compound 3, we first searched for the minimum concentration of compound that allowed killing of bacteria by doxycycline, and PAßN was used as the reference molecule.

[2] = tested on: P. aeruginosa PA01 ERY^R (Mex CD overproducer); experiment: microbe, parasite or virus in culture; assay type: cell-based, Pseudomonas aeruginosa; conditions: Pseudomonas aeruginosa, read-out: Minimal Inhibitory Concentration
Experimental: as §1, §2

[3] = tested on: P. aeruginosa PA0-7H (Mex EF overproducer); experiment: Antibiotic susceptibility testing (broth micro-dilution MIC), strain PA0-7H; assay type: cell-based, Pseudomonas aeruginosa; conditions: Pseudomonas aeruginosa, read-out: Minimal Inhibitory Concentration
Experimental: as §1, §3

[4] = tested on: P. aeruginosa CMZ091 (Mex XY overproducer); experiment: Antibiotic susceptibility testing (broth micro-dilution MIC), strain CMZ091; assay type: cell-based, Pseudomonas aeruginosa; conditions: Pseudomonas aeruginosa, read-out: Minimal Inhibitory Concentration
Experimental: as §1, §3

[5] = tested on: P. aeruginosa FB1 (Mex B deleted); experiment: Antibiotic susceptibility testing (broth micro-dilution MIC), strain FB1; assay type: cell-based; conditions: Pseudomonas aeruginosa, read-out: Minimal Inhibitory Concentration
Experimental: as §1

[6] = tested on: twenty clinical isolates of P. aeruginosa; experiment: Combined antibiotic / polyamino-isoprenic derivative on MH agar plates, clinical isolates; assay type: cell-based, Pseudomonas aeruginosa; conditions: doxycycline 2 mg/L + compound 10 μM; 20 clinical isolates
Experimental: MH agar plates were prepared, containing 2 mg/L doxycycline and 2 mg/L doxycycline in combination with compounds at a concentration of 10 μM. Bacteria, 5 μL of a suspension of each clinical isolate adjusted to 5 x 10^5 colony-forming units per ml were spotted on each plate and growth was monitored after a 18 h period of incubation at 37°C.
PA01 is a well-studied reference strain of P. aeruginosa, however to extend our study we considered strains recently isolated from hospitalized patients. Thus, we decided to test this combination of doxycycline (2mg/L) with polyamino-isoprenic compounds (10 μM) on twenty clinical isolates recently isolated from the HIA-Laveran (see M&M section and S1 Table).

CHO-K1 cells = experiment: cells; assay type: cell-based, Chinese Hamster; conditions: Cricetulus griseus, CHO-K1; WST1, 24 h; mean +/- SD, 2 independent experiments
Experimental: (§4) CHO-K1 cells (ATCC-LGC Standards Sarl (Molsheim, France) and human fibroblasts (Clinisciences, Paris, France) were maintained in McCoy’s 5A and DMEM media, respectively, supplemented with 10% bovine calf serum, 2 mM glutamine, and 100 U/mL/10 μg/mL penicillin/streptomycin. They were incubated at 37°C in a humidified atmosphere containing 5% CO2. The cell lines were seeded in 96-well plates and incubated overnight. The cytotoxic effects of compounds were assessed by the colorimetric WST-1 cell proliferation assay as previously described. Briefly, a range of compound concentrations from 30 μM to 1200 μM was added to triplicate cultures, and cells were incubated at 37°C for 24 h. At the end of the incubation period, cultures were washed three times with phosphate buffer saline (PBS) and incubated in fresh culture medium containing 10% WST-1 for an additional 30 min. Cell viability was evaluated by measuring the WST-1 absorbance at 450 nm in a microplate spectrophotometer MRX1 II (Dynex technologies, Chantilly, VA, USA). The Inhibitory Concentration 50% (IC50) was chosen to evaluate the cytotoxicity of compounds. IC50 was defined as the concentration of a compound that induced a 50% decrease in viable cells. Doxorubicin was used as a positive control.

human fibroblasts = experiment: WST-1 cytotoxicity test, fibroblasts; assay type: cell-based; conditions: Homo sapiens, Fibroblast; WST1, 24 h; mean +/- SD, 2 independent experiments
Experimental: as §4

Structure (SMILES)	MIC (P. aeruginosa PA01 (wt))	MIC [1]	MIC [2]	MIC [3]	MIC [4]	MIC [5]	isolates with doxycycline susceptibility restored [6] [%]	IC50 (CHO-K1 cells) [µM]	IC50 (human fibroblasts) [µM]
CC(C)=CCCC(C)=CCCC(C)=CCNCCCN(CCCN)CCCN [Compound 4]	49 µg/mL and 125 µM	49 µg/mL and 125 µM	25 µg/mL and 62.5 µM	49 µg/mL and 125 µM	49 µg/mL and 125 µM	49 µg/mL and 125 µM	88	363 ± 20.3	136 ± 7.9
COc1cccc2c1C(=O)c1c(O)c3c(c(O)c1C2=O)C[C@@](O)(C(=O)CO)C[C@@H]3O[C@H]1C[C@H](N)[C@H](O)[C@H](C)O1 [Doxorubicin, reference compound]	–	–	–	–	–	–	–	48.3 ± 6.8	12.4 ± 2.1
